In patent US20090304725A1, “Vaccine and Antigen Mimotopes Against Cancerous Diseases Associated with the Carcinoembryonic Antigen CEA” (Medizinische Universitat Wien, priority 2006, published 2009):
Bridge positions count the residues as written; N and C are the ends. Ends that are not written are not given here.

How the values were obtained:
[1] = test system: HT29 CEA overexpressing cells; assay: Complement-dependent cytotoxicity (CDC) assay, CytoTox 96; format: cell-based; conditions: highest value corrected to 100%
Protocol: (§1) FIG. 6: CDC reaction in vitro. Effects of the mimotope induced antibodies in mediating complement-dependent cytotoxicity. The reaction was determined against the CEA positive cell line HT 29 and against the CEA negative cell line SW 480. Mouse immune sera in different concentrations were tested on the two cell lines. Sera from CEA-MAM immunized mice were used 1:50 (black columns; 1) and 1:100 (white column; 2). The antibody Col-1 (3), the isotype control antibodies IgG2a (4) and IgM (5) were used as negative controls.
(§2) Complement-dependent cytotoxicity (CDC) and antibody-dependent-cytotoxicity (ADCC) effectivity of the antibodies induced by mimotope vaccination were measured with the CytoTox 96 Nonradioactive Cytotoxicity assay (Promega, Madison, Wis.). HT29 CEA overexpressing cells were used as positive target cells. SW480 CEA-negative colon cancer cells served as a negative target control cell line. The number of both target cells was optimized to 2×10^5 cells/ml. For CDC reactions (FIG. 6), pooled fifth immune sera were diluted 1:50 (1) or 1:100 (2) in CytoTox 96 assay medium. Additionally, the antibody Col-1 (3), an IgG2a (4) and an IgM (5) antibody (Sigma, Vienna, Austria) served as negative controls. […] All assay procedures and readouts were done as described in the manufacturers description. […] The results of the cytotoxicity was calculated as follows: […]

[2] = test system: HT29 CEA overexpressing cells; assay: Antibody-dependent cytotoxicity (ADCC) assay, CytoTox 96; format: cell-based; conditions: pooled fifth immune sera of immunized mice diluted 1:50; naive BALB/c spleen cells as effector cells
Protocol: (§3) FIG. 7: ADCC reaction in vitro. Effects of the antibody-dependent cytotoxicity. The reaction was determined against the CEA positive cell line HT 29 and against the CEA negative cell line SW 480. The CEA-MAP serum was used 1:50 (black columns; 1). The mice immunized with a control-MAP (2) or alum alone (3) and the Col-1 antibody (4) were used as negative controls.
as §2, with “controls. Spleen cells of naïve BALB/c mice were prepared by mashing the spleen and lysing the erythrocytes with ammonium chloride and used as effector cells.” for “controls.”

[3] = test system: SW480 CEA-negative colon cancer cells; assay: Cytotoxicity assay on CEA-negative control cell line; format: cell-based; conditions: sera of immunized mice
Protocol: as §1, §3
Complement-dependent cytotoxicity (CDC) and antibody-dependent-cytotoxicity (ADCC) effectivity of the antibodies induced by mimotope vaccination were measured with the CytoTox 96 Nonradioactive Cytotoxicity assay (Promega, Madison, Wis.). HT29 CEA overexpressing cells were used as positive target cells. […] All assay procedures and readouts were done as described in the manufacturers description. […] The results of the cytotoxicity was calculated as follows: […]

[4] = test system: CEA antigen binding to anti-CEA antibody Col-1; assay: Mimicry test, competitive ELISA on coated CEA antigen with Col-1; set-up: species or system human; conditions: phages at 5*10^10, 1*10^10, 1*10^9 particles per ml, simultaneously with Col-1
Protocol: FIG. 3: Mimicry analysis in ELISA competition assay. Coated CEA antigen is detected by Col-1 antibody, rendering a maximal signal of 1,4. Simultaneous incubation was done with titrated phage clones (white columns highest, grey: medium, black: least concentration of phage clones). Bound Col-1 was detected with anti-mouse IgG-peroxidase labelled. X-axis: clone names, Y-axis: colour intensity at OD450-630 nm.
The CEA antigen (human purified; Sigma, St. Louis) was used for coating ELISA plates. After blocking and washing, mimotopes phages were added to wells in three concentrations (5*10^10, 1*10^10, 1*10^9 particles per ml) simultaneously with antibody Col-1. In a final step, bound Col-1 antibody was detected by a peroxidase-labeled anti-mouse antibody. TMB substrate (BD Biosciences, San Diego, Calif.) was added for development of the colour and signal intensity measured in ELISA reader at OD450-630. […] This assay evidenced that selected mimotopes are mimics of the Col-1 epitope on CEA antigen.

[5] = target: CEA antigen (human purified; Sigma, St. Louis) (human) (UniProt P06731); assay: ELISA, CEA coated, bound Col-1 detected with anti-mouse IgG-peroxidase (FIG. 3)
UniProt P06731, sequence (P06731 35-685 limits assumed): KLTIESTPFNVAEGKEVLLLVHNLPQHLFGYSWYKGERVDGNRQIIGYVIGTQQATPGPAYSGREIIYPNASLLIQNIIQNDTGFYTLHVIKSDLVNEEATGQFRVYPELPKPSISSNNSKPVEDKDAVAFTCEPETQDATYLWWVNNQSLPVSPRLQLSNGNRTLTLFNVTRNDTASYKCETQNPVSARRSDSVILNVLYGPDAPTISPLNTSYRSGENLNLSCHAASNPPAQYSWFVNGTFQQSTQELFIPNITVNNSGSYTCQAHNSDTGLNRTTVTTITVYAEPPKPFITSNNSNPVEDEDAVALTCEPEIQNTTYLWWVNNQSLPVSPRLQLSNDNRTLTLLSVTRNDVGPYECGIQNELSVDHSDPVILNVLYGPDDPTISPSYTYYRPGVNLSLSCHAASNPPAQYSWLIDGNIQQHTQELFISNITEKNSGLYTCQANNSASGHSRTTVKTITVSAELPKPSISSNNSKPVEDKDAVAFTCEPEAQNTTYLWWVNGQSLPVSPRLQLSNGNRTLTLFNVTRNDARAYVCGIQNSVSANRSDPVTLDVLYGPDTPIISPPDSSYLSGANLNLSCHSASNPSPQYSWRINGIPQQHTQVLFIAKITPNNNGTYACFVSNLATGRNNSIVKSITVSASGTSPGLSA

For `CC(C)C[C@H](NC(=O)CNC(=O)CNC(=O)[C@H](CCCNC(=N)N)NC(=O)[C@@H](N)CC(=O)O)C(=O)N[C@@H](Cc1c[nH]c2ccccc12)C(=O)N[C@@H](CCCCN)C(=O)N[C@H](C(=O)N1CCC[C@H]1C(=O)NCCCC[C@H](NC(=O)[C@@H]1CCCN1C(=O)[C@@H](NC(=O)[C@H](CCCCN)NC(=O)[C@H](Cc1c[nH]c2ccccc12)NC(=O)[C@H](CC(C)C)NC(=O)CNC(=O)CNC(=O)[C@H](CCCNC(=N)N)NC(=O)[C@@H](N)CC(=O)O)[C@@H](C)O)C(=O)NCCCC[C@H](NC(=O)[C@H](CCCCNC(=O)[C@@H]1CCCN1C(=O)[C@@H](NC(=O)[C@H](CCCCN)NC(=O)[C@H](Cc1c[nH]c2ccccc12)NC(=O)[C@H](CC(C)C)NC(=O)CNC(=O)CNC(=O)[C@H](CCCNC(=N)N)NC(=O)[C@@H](N)CC(=O)O)[C@@H](C)O)NC(=O)[C@@H]1CCCN1C(=O)[C@@H](NC(=O)[C@H](CCCCN)NC(=O)[C@H](Cc1c[nH]c2ccccc12)NC(=O)[C@H](CC(C)C)NC(=O)CNC(=O)CNC(=O)[C@H](CCCNC(=N)N)NC(=O)[C@@H](N)CC(=O)O)[C@@H](C)O)C(=O)NCC(=O)NCC(=O)N[C@@H](CSCC(=O)NCCCCCCNC(=O)CSC[C@H](NC(=O)CNC(=O)CNC(=O)[C@H](CCCCNC(=O)[C@H](CCCCNC(=O)[C@@H]1CCCN1C(=O)[C@@H](NC(=O)[C@H](CCCCN)NC(=O)[C@H](Cc1c[nH]c2ccccc12)NC(=O)[C@H](CC(C)C)NC(=O)CNC(=O)CNC(=O)[C@H](CCCNC(=N)N)NC(=O)[C@@H](N)CC(=O)O)[C@@H](C)O)NC(=O)[C@@H]1CCCN1C(=O)[C@@H](NC(=O)[C@H](CCCCN)NC(=O)[C@H](Cc1c[nH]c2ccccc12)NC(=O)[C@H](CC(C)C)NC(=O)CNC(=O)CNC(=O)[C@H](CCCNC(=N)N)NC(=O)[C@@H](N)CC(=O)O)[C@@H](C)O)NC(=O)[C@H](CCCCNC(=O)[C@@H]1CCCN1C(=O)[C@@H](NC(=O)[C@H](CCCCN)NC(=O)[C@H](Cc1c[nH]c2ccccc12)NC(=O)[C@H](CC(C)C)NC(=O)CNC(=O)CNC(=O)[C@H](CCCNC(=N)N)NC(=O)[C@@H](N)CC(=O)O)[C@@H](C)O)NC(=O)[C@@H]1CCCN1C(=O)[C@@H](NC(=O)[C@H](CCCCN)NC(=O)[C@H](Cc1c[nH]c2ccccc12)NC(=O)[C@H](CC(C)C)NC(=O)CNC(=O)CNC(=O)[C@H](CCCNC(=N)N)NC(=O)[C@@H](N)CC(=O)O)[C@@H](C)O)C(=O)O)C(=O)O)[C@@H](C)O` [CEA-mimotope MAP], the CDC cytotoxicity ([1]; pooled fifth immune sera of immunized mice diluted 1:50) was 100%, the CDC cytotoxicity ([1]; pooled fifth immune sera of immunized mice diluted 1:100) was 51% and the ADCC cytotoxicity [2] was 50%. The “cytotoxic reaction on CEA negative cells” value [3] was “no reaction”.

For “C-RLALGDAKKY-C (CRLALGDAKKYC; disulfide 1-12; not fully specified; printed as C-RLALGDAKKY-C) [COL4, CEA mimotope selected from phage library with antibody Col-1]”, the “competition of phage-displayed mimotope with CEA for binding to Col-1” value [4] was “best candidate”.

B1: monoclonal antibody Col-1 (Zymed Lab., San Francisco, Calif.) (antibody, from another filing, V domains shown)
VH: EVQLQQSGAELVRSGASVKMSCTASGFNIKDYYMHWVKQRPEQGLEWIGWIDPENGDTEYAPKFQGKATMTTDTSSNTAYLQLSSLTSEDTAVYYCNTRGLSTMITTRWFFDVWGAGTTVAVSS
VL: DIVLTQSPASLTVSLGLRATISCRASKSVSASGYSYMHWYQQRPGQPPKLLIYLASNLQSGVPARFSGSGSGTDFTLNIHPVEEEDAATYYCQHSRELPTFGGGTKLEIK
B1 showed a maximal signal (OD450-630 nm) [5] of 1.4 OD450-630 nm.
